The values that follow come from ChEMBL document CHEMBL1671707, “Mycobacterium tuberculosis dihydrofolate reductase is not a target relevant to the antitubercular activity of isoniazid” (Antimicrob Agents Chemother, 2010).

The test system of experiment [1] is Mycolicibacterium smegmatis. The experiment can be described thus: Antimicrobial activity against Mycobacterium smegmatis MC2 4517 by broth microdilution method. In kind it is functional.
Another experiment relates to Escherichia coli. Briefly: Antimicrobial activity against Escherichia coli expressing katG and dfrA gene. In kind it is functional, organism-based.
Experiment [2] has as its system Mycolicibacterium smegmatis. The experiment can be described thus: Antimicrobial activity against Mycobacterium smegmatis MC2 5071 overexpressing InhA gene assessed as growth inhibition at 50 ug/ml. In kind it is functional, organism-based.
Experiment [3] deals with Mycolicibacterium smegmatis. The experiment can be described thus: Antimicrobial activity against Mycobacterium smegmatis MC2 5069 assessed as growth inhibition at 50 ug/ml. In kind it is functional, organism-based.
In experiment [4] the test system is Mycolicibacterium smegmatis. The experiment can be described thus: Antimicrobial activity against Mycobacterium smegmatis MC2 5071 overexpressing InhA gene assessed as growth inhibition at 10 ug/ml. In kind it is functional, organism-based.
For experiment [5], the system named is Mycolicibacterium smegmatis. Briefly: Antimicrobial activity against Mycobacterium smegmatis MC2 5069 assessed as growth inhibition at 150 ug/ml. In kind it is functional, organism-based.
Experiment [6] relates to Mycobacterium tuberculosis. The experiment can be described thus: Antimicrobial activity against wild-type Mycobacterium tuberculosis H37Rv by MTT assay. In kind it is functional. In general terms: Tetrazolium dyes change colour on reduction, which living cells bring about.
In experiment [7] the test system is Mycolicibacterium smegmatis. The experiment can be described thus: Ratio of MIC for Mycobacterium smegmatis overexpressing dfrA gene to MIC for wild-type Mycobacterium smegmatis. In kind it is functional.
Experiment [8] relates to Mycolicibacterium smegmatis. Briefly: Antimicrobial activity against Mycobacterium smegmatis MC2 5071 overexpressing InhA gene assessed as growth inhibition at 120 ug/ml. In kind it is functional, organism-based.
Another experiment deals with T1, Dihydrofolate reductase (Mycobacterium tuberculosis, UniProt P9WNX1).
T1 sequence (P9WNX1 whole entry): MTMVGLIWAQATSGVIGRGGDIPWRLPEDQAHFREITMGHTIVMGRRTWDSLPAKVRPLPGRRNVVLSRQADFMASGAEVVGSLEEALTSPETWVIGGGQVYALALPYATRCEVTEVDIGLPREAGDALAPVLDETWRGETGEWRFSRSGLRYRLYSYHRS
Briefly: Inhibition of Mycobacterium tuberculosis dihydrofolate reductase.

Experiment [9] has as its system Mycolicibacterium smegmatis. The experiment can be described thus: Antimicrobial activity against Mycobacterium smegmatis MC2 5072 overexpressing dhfr gene assessed as growth inhibition at 120 ug/ml. In kind it is functional, organism-based.
The test system of experiment [10] is Mycolicibacterium smegmatis. Briefly: Antimicrobial activity against Mycobacterium smegmatis MC2 5072 overexpressing dhfr gene assessed as growth inhibition at 10 ug/ml. In kind it is functional, organism-based.
Experiment [11] has as its system Mycolicibacterium smegmatis. Briefly: Antimicrobial activity against Mycobacterium smegmatis MC2 5071 overexpressing InhA gene assessed as growth inhibition at 150 ug/ml. In kind it is functional, organism-based.

SMILES strings stand for the structures. Converted amounts (≈) assume the structure as drawn. The source made the active and inactive calls. The rule behind the calls is not given here.

For the compound `CCc1cc(C(N)=S)ccn1` [ETHIONAMIDE], the MIC (usually the least concentration at which growth counts as inhibited) in experiment [1] was determined as 9.4 µg/mL (≈ 56.5 µM).

Consider `NNC(=O)c1ccncc1` [ISONIAZID], for which the result (in the experiment with Escherichia coli; in experiment [4]; in [8]) was inactive. Further, the result in [2], in [3], in [5], in experiment [9], in experiment [10] and in experiment [11] was Active. Further, the minimum inhibitory concentration (MIC) turned out to be 0.06 µg/mL (≈ 0.438 µM) in experiment [6] and 4.7 µg/mL (≈ 34.3 µM) in [1]. The Ratio in experiment [7] is reported as 2. For the same compound, on Dihydrofolate reductase, the affinity corresponds to a Ki of 1 nM.
